Drawing on PubChem BioAssay (NCI), this text covers TGI and GI50 for 16 compounds.

“And” between values parts separate entries of the source, which are not always exact repeats. Equal values may be shown once.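 The compound was tested at five concentrations on cells cultured in 96-well plates, with a 48-hour exposure period. At the GI50, growth is halved. TGI denotes the concentration required for complete inhibition of growth.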

Experiment in all cases: inhibition of tumour cell growth, NCI panel, 48 h
The test system of test [1] is COLO 205 colon.
Test [2] concerns K-562 leukemia.
For test [3], the system named is LOX IMVI melanoma.
For test [4], the system named is M14 melanoma.
In test [5] the test system is MOLT-4 leukemia.
Test [6] relates to OVCAR-5 ovarian.
Test [7] deals with SNB-75 CNS.
In test [8] the test system is SR leukemia.
Test [9] deals with PC-3 prostate.

`CC(C)(C)c1cc(Oc2ccc(C#N)c(C#N)c2)cc(C(C)(C)C)c1`: the TGI in test [1] was over 100 µM; in [2], over 100 µM; in [3] it was 94.6 µM; in [4], over 100 µM; in test [5] it was over 100 µM; in test [6] it was over 100 µM. The TGI in [7] is over 100 µM; in [8] it was 42.3 µM.

Take `CN(C(=O)C12C3C4C1C1C2C3C41C(=O)N(C)C(C)(C)C)C(C)(C)C` (stereo unspecified): the TGI in test [1], in [2], in test [4], in [5], in [7] and in test [8] was over 50 µM each time.

As to `Cc1ccc(C)c(NC(=O)C(=O)CC(=O)c2cccc3ccccc23)c1`, the TGI in test [1], in test [2], in [3], in [4], in test [5] and in test [6] was over 100 µM throughout. Moreover, the TGI in [7] and in test [8] was over 100 µM each time.

Take `CC(C)(C)C1CCP(=O)(c2ccccc2)CC1` (stereo unspecified): the TGI in [1], in [2], in test [3], in [4], in test [5] and in [6] was over 100 µM throughout. Besides, the TGI in test [7] and in test [8] was over 100 µM in each case.

On to `COC(=O)[C@H]1CC(=O)C=C2CCCC21` (stereo partly specified), for which the TGI in [1], in test [2], in test [3], in test [4], in test [5] and in test [7] was over 100 µM in each case.

As for `O=C(O)/C(=C/c1ccccc1[N+](=O)[O-])c1cccs1`, the TGI in test [1], in test [2], in [3], in test [4], in test [5] and in test [6] was over 100 µM in each case. The TGI in test [7] and in [8] was over 100 µM throughout.

Turning to `CC1=C(C(=O)Nc2cccc(C(F)(F)F)c2)C(c2ccccc2F)C(C(=O)Nc2cccc(C(F)(F)F)c2)=C(C)N1`, the TGI turned out to be 20.5 µM in test [1]; 18.6 µM in test [2]; 18.3 µM in test [3]; 15.7 µM in [4]; 8.41 µM in [5]; 24.5 µM in [6]. This compound also showed a TGI in test [7] of 79.6 µM.

Turning to `CC(=O)n1cc(CC(C)O)c(=O)[nH]c1=O` (stereo unspecified), the TGI in test [1], in test [2], in test [3], in test [4], in test [5] and in test [6] was over 100 µM throughout. Moreover, the TGI in test [7] and in [8] was over 100 µM in each case.

In the case of `NC(=O)c1ccccc1NC(=O)C(=O)Nc1n[nH]c(N)n1`, the TGI in test [1], in test [2], in [3], in test [4], in test [5] and in [6] was over 100 µM in each case. Also, the TGI in test [7] and in [8] was over 100 µM throughout.

Turning to `Cc1nn2c(=O)n(-c3cccc(-n4nnc5c(-c6ccccc6)c(C)nn5c4=O)c3C)nnc2c1-c1ccccc1`, the TGI was 42.7 µM in [1]; over 100 µM in test [2]; over 100 µM in test [3]; 29.6 µM in test [4]; 50 µM in test [5]; over 100 µM in test [6]. Moreover, the TGI in test [7] was over 100 µM; in test [8] it was 55.8 µM.

For `Cc1ccc(SC2C(C)(C)N(C(C)C)P2(=O)N(C(C)C)C(C)C)cc1` (stereo unspecified), the TGI is over 64.1 µM in [1]; over 52.4 µM in test [2]; over 59.9 µM in test [3]; over 100 µM in [4]; over 59.3 µM in test [5]; over 100 µM in [6]. Also, the TGI in test [7] is over 100 µM; in [8], 31.4 µM.

Consider `Cc1ccc(S(=O)(=O)Nc2cccc(C)c2C)cc1`, for which the TGI in [1], in test [2], in test [3], in [4], in test [5] and in [6] was over 100 µM in each case. Further, the TGI in test [7] was 86.8 µM; in [8] it was over 100 µM.

As for `O=S1c2ccccc2N=C(c2ccc3ccccc3c2)CC1c1ccccc1F` (stereo unspecified), the TGI in test [1], in test [2], in test [3], in test [4], in [5] and in test [6] was over 100 µM throughout. In test [7], this compound had a TGI of 80.8 µM.

With `CC(N)CN.CC(N)CN.[Cl-].[O]=[Os+2]=[O]` (stereo unspecified), the GI50 was 70.2 µM in [1]; 27 µM in test [3]; over 100 µM in test [4]; over 100 µM in test [6]; over 100 µM in test [7]; 28.6 µM in [8]. Also, the TGI in test [1], in [3], in test [4], in test [6], in [7] and in test [8] was over 100 µM throughout.

Turning to `COc1ccc(C2c3cc4c(c(OC)c3CC3OCC(=O)C32)OCO4)cc1OC` (stereo unspecified), the GI50 in [1] is under 0.01 µM; in [4], under 0.01 µM; in test [6] it was over 100 µM; in test [9] it was under 0.01 µM. Also, the TGI in test [1] is 0.074 µM and 0.0135 µM; in test [4], over 100 µM; in test [6], over 100 µM; in test [9], over 100 µM; in test [8], under 0.01 µM.

Regarding `CC(C)(C)C1CCC(CI)(N=[N+]=[N-])CC1` (stereo unspecified), the TGI in [1], in test [2], in test [4], in [5], in [6] and in [7] was over 100 µM each time. For the same compound, the TGI in test [8] was over 100 µM.
